Tests used:
DDR2 = target: T1, DDR2 (Homo sapiens, UniProt Q16832); assay: LanthaScreen Europium Kinase Binding assay, DDR2; conditions: 5 nM DDR2, 10 nM Kinase Tracer 178, 1 h at rt; Ki from IC50 by Cheng-Prusoff; read-out: Ki DDR2
T1 construct: purchased Life Technologies
T1 sequence (Q16832 22-855): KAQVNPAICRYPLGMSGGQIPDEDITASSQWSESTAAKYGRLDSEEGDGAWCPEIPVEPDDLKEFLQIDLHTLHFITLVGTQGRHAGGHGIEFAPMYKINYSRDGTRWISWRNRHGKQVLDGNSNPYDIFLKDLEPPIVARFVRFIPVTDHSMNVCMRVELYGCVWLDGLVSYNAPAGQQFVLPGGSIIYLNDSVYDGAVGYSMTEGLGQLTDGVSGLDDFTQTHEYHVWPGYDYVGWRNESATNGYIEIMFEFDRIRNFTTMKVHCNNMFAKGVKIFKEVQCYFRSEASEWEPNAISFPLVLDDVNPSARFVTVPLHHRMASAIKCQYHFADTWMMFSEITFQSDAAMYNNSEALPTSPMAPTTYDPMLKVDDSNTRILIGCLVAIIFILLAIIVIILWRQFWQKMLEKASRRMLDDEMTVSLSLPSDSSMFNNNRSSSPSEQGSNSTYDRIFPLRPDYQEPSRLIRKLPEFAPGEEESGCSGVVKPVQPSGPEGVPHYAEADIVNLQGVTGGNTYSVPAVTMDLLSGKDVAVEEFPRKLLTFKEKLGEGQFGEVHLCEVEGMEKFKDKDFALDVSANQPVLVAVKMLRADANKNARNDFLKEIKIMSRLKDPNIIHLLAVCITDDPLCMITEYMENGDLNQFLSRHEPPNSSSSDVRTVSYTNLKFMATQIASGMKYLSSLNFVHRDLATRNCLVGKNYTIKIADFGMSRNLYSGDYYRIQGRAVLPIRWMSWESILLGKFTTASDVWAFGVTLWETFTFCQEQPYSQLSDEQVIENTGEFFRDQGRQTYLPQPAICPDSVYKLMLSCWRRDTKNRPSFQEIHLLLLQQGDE
Procedure: (§1) DDR1 and DDR2 binding assays were performed using Life Technologies LanthaScreen™ Europium Kinase Binding assay. […] IC50 values were determined in GraphPad Prism 7.0 software, using 4 parameter model: log (inhibitor) vs. response. IC50 values were converted in Ki using the Cheng-Prusoff equation (Ki-IC50/(1+ [Tracer]/Kd).

DDR1 = target: T2, DDR1 (Homo sapiens, UniProt Q08345); assay: LanthaScreen Europium Kinase Binding assay, DDR1; conditions: 5 nM DDR1, 20 nM Kinase Tracer 178, 1 h at rt; Ki from IC50 by Cheng-Prusoff; read-out: Ki DDR1
T2 construct: purchased Carna Biosciences
Procedure: as §1

T2 sequence (Q08345 19-913): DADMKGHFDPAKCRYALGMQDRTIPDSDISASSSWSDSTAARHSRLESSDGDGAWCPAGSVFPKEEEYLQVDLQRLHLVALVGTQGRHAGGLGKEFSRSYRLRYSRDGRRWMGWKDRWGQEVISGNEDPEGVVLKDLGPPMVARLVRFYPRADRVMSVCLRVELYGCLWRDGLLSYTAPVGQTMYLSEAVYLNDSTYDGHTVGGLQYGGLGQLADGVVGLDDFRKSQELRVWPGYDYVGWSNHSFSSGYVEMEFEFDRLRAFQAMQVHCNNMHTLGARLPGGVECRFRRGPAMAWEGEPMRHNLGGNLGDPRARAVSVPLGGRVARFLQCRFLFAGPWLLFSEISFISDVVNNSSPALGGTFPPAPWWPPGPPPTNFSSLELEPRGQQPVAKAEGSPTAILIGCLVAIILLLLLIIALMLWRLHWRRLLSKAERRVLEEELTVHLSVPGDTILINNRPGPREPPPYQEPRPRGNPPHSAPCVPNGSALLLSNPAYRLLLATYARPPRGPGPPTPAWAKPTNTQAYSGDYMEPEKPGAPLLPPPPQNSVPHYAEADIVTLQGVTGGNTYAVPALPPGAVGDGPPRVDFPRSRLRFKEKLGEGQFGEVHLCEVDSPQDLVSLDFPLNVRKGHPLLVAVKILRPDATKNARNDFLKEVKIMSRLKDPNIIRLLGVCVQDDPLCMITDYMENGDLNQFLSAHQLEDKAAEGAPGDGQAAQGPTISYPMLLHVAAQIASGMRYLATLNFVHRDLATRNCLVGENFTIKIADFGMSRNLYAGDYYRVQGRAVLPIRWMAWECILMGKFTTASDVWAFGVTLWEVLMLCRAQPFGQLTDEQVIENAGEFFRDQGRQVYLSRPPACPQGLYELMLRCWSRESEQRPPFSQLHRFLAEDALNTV

SMILES	Ki (DDR2) [nM]	Ki (DDR1) [nM]
O=C(Nc1cccc(CC(F)(F)F)c1)NC1CC2(C1)CN(C(=O)c1ccnc3[nH]ncc13)C2 [Example 153, 1-(2-(1H-pyrazolo[3,4-b]pyridine-4-carbonyl)-2-azaspiro[3.3]heptan-6-yl)-3-(3-(2,2,2-trifluoroethyl)phenyl)urea]	< 5	< 5
O=C(Nc1cc(OC(F)(F)F)ccn1)NC1CC2(C1)CN(C(=O)c1ccnc3[nH]ncc13)C2 [Example 154, 1-(2-(1H-pyrazolo[3,4-b]pyridine-4-carbonyl)-2-azaspiro[3.3]heptan-6-yl)-3-(4-(trifluoromethoxy)pyridin-2-yl)urea]	5 to 25	< 5
Cn1ccc2ncnc(C(=O)N3CC4(CC(NC(=O)Nc5cccc(C(F)(F)F)c5)C4)C3)c21 [Example 160, 1-(2-(5-methyl-5H-pyrrolo[3,2-d]pyrimidine-4-carbonyl)-2-azaspiro[3.3]heptan-6-yl)-3-(3-(trifluoromethyl)phenyl)urea]	5 to 25	5 to 25
Cn1ccn2ncc(C(=O)N3CC4(CC(NC(=O)Nc5cccc(S(=O)(=O)C(F)(F)F)c5)C4)C3)c12 [Example 161, 1-(2-(1-methyl-1H-imidazo[1,2-b]pyrazole-7-carbonyl)-2-azaspiro[3.3]heptan-6-yl)-3-(3-((trifluoromethyl)sulfonyl)phenyl)urea]	5 to 25	< 5
O=C(Nc1cccc(SC(F)(F)F)c1)NC1CC2(C1)CN(C(=O)c1ccnc3[nH]ncc13)C2 [Example 162, 1-(2-(1H-pyrazolo[3,4-b]pyridine-4-carbonyl)-2-azaspiro[3.3]heptan-6-yl)-3-(3-((trifluoromethyl)thio)phenyl)urea]	< 5	< 5
O=C(Nc1ccc(C(F)(F)F)cn1)NC1CC2(C1)CN(c1cnc3[nH]ncc3c1)C2 [Example 163, 1-(2-(1H-pyrazolo[3,4-b]pyridin-5-yl)-2-azaspiro[3.3]heptan-6-yl)-3-(5-(trifluoromethyl)pyridin-2-yl)urea]	5 to 25	5 to 25
Cc1ncc(C(F)(F)F)cc1NC(=O)NC1CC2(C1)CN(C(=O)c1cnn3ccsc13)C2 [Example 165, 1-(2-methyl-5-(trifluoromethyl)pyridin-3-yl)-3-(2-(pyrazolo[5,1-b]thiazole-7-carbonyl)-2-azaspiro[3.3]heptan-6-yl)urea]	5 to 25	< 5
O=C(Nc1cccc(C(F)(F)F)c1)NC1CC2(C1)CN(C(=O)c1cnn3ccn(C4COC4)c13)C2 [Example 167, 1-(2-(1-(oxetan-3-yl)-1H-imidazo[1,2-b]pyrazole-7-carbonyl)-2-azaspiro[3.3]heptan-6-yl)-3-(3-(trifluoromethyl)phenyl)urea]	5 to 25	< 5
CN(C(=O)Nc1cc(C(F)(F)F)ncn1)C1CC2(C1)CN(C(=O)c1cnn3ccn(C)c13)C2 [Example 170, 1-methyl-1-(2-(1-methyl-1H-imidazo[1,2-b]pyrazole-7-carbonyl)-2-azaspiro[3.3]heptan-6-yl)-3-(6-(trifluoromethyl)pyrimidin-4-yl)urea]	> 100	5 to 25
Cc1ncc(C(F)(F)F)cc1NC(=O)NC1CC2(C1)CN(C(=O)c1cnn3ccn(C)c13)C2 [Example 171, 1-(2-(1-methyl-1H-imidazo[1,2-b]pyrazole-7-carbonyl)-2-azaspiro[3.3]heptan-6-yl)-3-(2-methyl-5-(trifluoromethyl)pyridin-3-yl)urea]	5 to 25	< 5
CN(C(=O)Nc1cncc(OC(F)(F)F)c1)C1CC2(C1)CN(C(=O)c1cnn3ccn(C)c13)C2 [Example 172, 1-methyl-1-(2-(1-methyl-1H-imidazo[1,2-b]pyrazole-7-carbonyl)-2-azaspiro[3.3]heptan-6-yl)-3-(5-(trifluoromethoxy)pyridin-3-yl)urea]	5 to 25	< 5
CN(C(=O)Nc1cncc(C(F)(F)F)c1)C1CC2(C1)CN(C(=O)c1cnn3ccncc13)C2 [Example 175, 1-methyl-1-(2-(pyrazolo[1,5-a]pyrazine-3-carbonyl)-2-azaspiro[3.3]heptan-6-yl)-3-(5-(trifluoromethyl)pyridin-3-yl)urea]	25 to 100	5 to 25
CN(C(=O)Nc1cncc(OC(F)(F)F)c1)C1CC2(C1)CN(C(=O)c1cnn3ccncc13)C2 [Example 176, 1-methyl-1-(2-(pyrazolo[1,5-a]pyrazine-3-carbonyl)-2-azaspiro[3.3]heptan-6-yl)-3-(5-(trifluoromethoxy)pyridin-3-yl)urea]	25 to 100	5 to 25

Next, values leading:

Ki (DDR2) [nM]	Ki (DDR1) [nM]	SMILES
5 to 25	< 5	Cn1ccn2ncc(C(=O)N3CC4(CC(NC(=O)Nc5cc(C6CC6)ccn5)C4)C3)c12 [Example 155, 1-(4-cyclopropylpyridin-2-yl)-3-(2-(1-methyl-1H-imidazo[1,2-b]pyrazole-7-carbonyl)-2-azaspiro[3.3]heptan-6-yl)urea]
5 to 25	< 5	CN(C(=O)Nc1cc(C2CC2)ccn1)C1CC2(C1)CN(C(=O)c1cnn3ccn(C)c13)C2 [Example 156, 3-(4-cyclopropylpyridin-2-yl)-1-methyl-1-(2-(1-methyl-1H-imidazo[1,2-b]pyrazole-7-carbonyl)-2-azaspiro[3.3]heptan-6-yl)urea]
5 to 25	< 5	CN(C(=O)Nc1cncc(C2CC2)c1)C1CC2(C1)CN(C(=O)c1cnn3ccn(C)c13)C2 [Example 157, 3-(5-cyclopropylpyridin-3-yl)-1-methyl-1-(2-(1-methyl-1H-imidazo[1,2-b]pyrazole-7-carbonyl)-2-azaspiro[3.3]heptan-6-yl)urea]
5 to 25	< 5	[2H]C([2H])([2H])N(C(=O)Nc1cccc(C(F)(F)F)c1)C1CC2(C1)CN(C(=O)c1cnn3ccn(C)c13)C2 [Example 158, 1-(methyl-d3)-1-(2-(1-methyl-1H-imidazo[1,2-b]pyrazole-7-carbonyl)-2-azaspiro[3.3]heptan-6-yl)-3-(3-(trifluoromethyl)phenyl)urea]
5 to 25	< 5	O=C(Nc1cncc(C(F)(F)F)c1)NC1CC2(C1)CN(C(=O)c1ccnc3[nH]ncc13)C2 [Example 159, 1-(2-(1H-pyrazolo[3,4-b]pyridine-4-carbonyl)-2-azaspiro[3.3]heptan-6-yl)-3-(5-(trifluoromethyl)pyridin-3-yl)urea]
25 to 100	< 5	CN(C(=O)Nc1cc(C(F)F)ccn1)C1CC2(C1)CN(C(=O)c1cnn3ccn(C)c13)C2 [Example 164, 3-(4-(difluoromethyl)pyridin-2-yl)-1-methyl-1-(2-(1-methyl-1H-imidazo[1,2-b]pyrazole-7-carbonyl)-2-azaspiro[3.3]heptan-6-yl)urea]
5 to 25	< 5	O=C(Nc1cccc(C(F)(F)F)c1)NC1CC2(C1)CN(C(=O)c1cnn3ccn(CC4COC4)c13)C2 [Example 166, 1-(2-(1-(oxetan-3-ylmethyl)-1H-imidazo[1,2-b]pyrazole-7-carbonyl)-2-azaspiro[3.3]heptan-6-yl)-3-(3-(trifluoromethyl)phenyl)urea]
5 to 25	< 5	Cn1ccn2ncc(C(=O)N3CC4(CC(NC(=O)Nc5cc(C(F)(F)F)cc(C#N)n5)C4)C3)c12 [Example 168, 1-(6-cyano-4-(trifluoromethyl)pyridin-2-yl)-3-(2-(1-methyl-1H-imidazo[1,2-b]pyrazole-7-carbonyl)-2-azaspiro[3.3]heptan-6-yl)urea]
5 to 25	< 5	CN(C(=O)Nc1cncc(C(F)(F)F)c1)C1CC2(C1)CN(C(=O)c1cnn3ccn(C)c13)C2 [Example 169, 1-methyl-1-(2-(1-methyl-1H-imidazo[1,2-b]pyrazole-7-carbonyl)-2-azaspiro[3.3]heptan-6-yl)-3-(5-(trifluoromethyl)pyridin-3-yl)urea]
25 to 100	< 5	CN(C(=O)Nc1cncc(C(C)(F)F)c1)C1CC2(C1)CN(C(=O)c1cnn3ccn(C)c13)C2 [Example 173, 3-(5-(1,1-difluoroethyl)pyridin-3-yl)-1-methyl-1-(2-(1-methyl-1H-imidazo[1,2-b]pyrazole-7-carbonyl)-2-azaspiro[3.3]heptan-6-yl)urea]
5 to 25	< 5	Cn1ccn2ncc(C(=O)N3CC4(CC(N(CC(F)(F)F)C(=O)Nc5cccc(C(F)(F)F)c5)C4)C3)c12 [Example 174, 1-(2-(1-methyl-1H-imidazo[1,2-b]pyrazole-7-carbonyl)-2-azaspiro[3.3]heptan-6-yl)-1-(2,2,2-trifluoroethyl)-3-(3-(trifluoromethyl)phenyl)urea]

Source: patent US20260285855A1, “HETEROARYL DERIVATIVES AS DDRS INHIBITORS” (CHIESI FARMACEUTICI S.P.A., priority 2023, published 2026)
